Source: PMC3607822 (The Journal of General Physiology, 2013)
Read-outs that look alike come from different tables or passages of the source.

Key:
Format in all cases: biochemical
[1] = target: T1, CNGA3 635X homomeric channels (Homo sapiens, UniProt Q16281); assay: Inside-out patch clamp, CNGA3 635X
T1 sequence (Q16281 1-634 limits assumed): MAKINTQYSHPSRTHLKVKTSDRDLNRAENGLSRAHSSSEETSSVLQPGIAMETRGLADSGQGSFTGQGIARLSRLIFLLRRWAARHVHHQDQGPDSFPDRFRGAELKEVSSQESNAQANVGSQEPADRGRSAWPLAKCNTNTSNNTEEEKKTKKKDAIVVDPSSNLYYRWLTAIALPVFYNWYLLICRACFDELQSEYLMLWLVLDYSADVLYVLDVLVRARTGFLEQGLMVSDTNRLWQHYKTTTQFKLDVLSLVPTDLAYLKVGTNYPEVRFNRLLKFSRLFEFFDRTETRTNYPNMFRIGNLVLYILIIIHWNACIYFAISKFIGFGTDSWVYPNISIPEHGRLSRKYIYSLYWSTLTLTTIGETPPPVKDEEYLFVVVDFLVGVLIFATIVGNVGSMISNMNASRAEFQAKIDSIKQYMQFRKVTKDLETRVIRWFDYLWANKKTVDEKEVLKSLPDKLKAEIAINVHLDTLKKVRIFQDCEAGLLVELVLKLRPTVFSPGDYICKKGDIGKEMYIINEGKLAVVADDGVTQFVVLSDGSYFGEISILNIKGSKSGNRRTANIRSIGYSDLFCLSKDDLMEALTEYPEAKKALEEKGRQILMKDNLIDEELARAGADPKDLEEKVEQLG

[2] = target: T2, CNGA3 P99L, A105P (PA-LP) channels (Homo sapiens, UniProt Q16281, A105P/P99L); assay: Inside-out patch clamp, CNGA3 P99L, A105P; conditions: for EC50: read-out: K1/2 cGMP
T2 sequence (Q16281 1-694 P99L/A105P): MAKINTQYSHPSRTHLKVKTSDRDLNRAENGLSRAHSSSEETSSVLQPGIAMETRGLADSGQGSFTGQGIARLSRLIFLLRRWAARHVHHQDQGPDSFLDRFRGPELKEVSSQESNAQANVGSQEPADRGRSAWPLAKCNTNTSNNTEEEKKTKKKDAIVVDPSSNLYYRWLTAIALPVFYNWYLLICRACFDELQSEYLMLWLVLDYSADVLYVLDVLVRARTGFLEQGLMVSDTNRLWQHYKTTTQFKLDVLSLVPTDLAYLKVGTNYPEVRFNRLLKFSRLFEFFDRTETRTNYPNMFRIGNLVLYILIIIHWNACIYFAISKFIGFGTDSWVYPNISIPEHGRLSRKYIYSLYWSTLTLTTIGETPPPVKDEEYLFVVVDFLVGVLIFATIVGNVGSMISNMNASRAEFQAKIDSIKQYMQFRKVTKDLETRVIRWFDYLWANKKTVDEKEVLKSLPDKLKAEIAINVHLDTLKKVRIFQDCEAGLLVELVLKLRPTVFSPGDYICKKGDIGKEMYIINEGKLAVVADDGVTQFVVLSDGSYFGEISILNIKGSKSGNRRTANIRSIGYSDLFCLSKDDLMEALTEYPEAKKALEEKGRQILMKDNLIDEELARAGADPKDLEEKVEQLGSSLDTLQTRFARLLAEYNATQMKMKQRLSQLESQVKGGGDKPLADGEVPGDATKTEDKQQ

CNGA3 D609M channels = CNGA3 D609M channels (Homo sapiens, UniProt Q16281, D609M); assay: Inside-out patch clamp, CNGA3 D609M
Chain of CNGA3 D609M channels (Q16281 whole entry D609M): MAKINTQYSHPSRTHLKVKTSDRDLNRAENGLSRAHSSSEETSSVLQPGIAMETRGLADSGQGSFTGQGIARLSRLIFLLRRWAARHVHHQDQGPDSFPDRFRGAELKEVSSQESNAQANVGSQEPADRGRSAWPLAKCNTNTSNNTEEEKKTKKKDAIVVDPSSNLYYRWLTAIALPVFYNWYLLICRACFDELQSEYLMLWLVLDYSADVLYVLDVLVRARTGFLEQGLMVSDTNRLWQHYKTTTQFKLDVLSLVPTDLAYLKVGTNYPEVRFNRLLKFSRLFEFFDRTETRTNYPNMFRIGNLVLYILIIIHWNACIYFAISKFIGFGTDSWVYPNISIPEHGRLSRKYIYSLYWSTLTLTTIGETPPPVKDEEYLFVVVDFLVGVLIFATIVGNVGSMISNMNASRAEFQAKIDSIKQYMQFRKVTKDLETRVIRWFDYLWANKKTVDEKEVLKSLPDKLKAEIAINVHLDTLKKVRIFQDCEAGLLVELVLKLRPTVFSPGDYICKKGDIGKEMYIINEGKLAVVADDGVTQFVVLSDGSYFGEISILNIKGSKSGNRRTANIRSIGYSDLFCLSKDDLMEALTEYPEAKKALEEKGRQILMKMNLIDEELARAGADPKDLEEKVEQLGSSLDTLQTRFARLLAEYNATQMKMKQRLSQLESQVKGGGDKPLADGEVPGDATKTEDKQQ

[3] = representative patch, before PIP3
[4] = representative patch, 1 µM PIP3

| Hill coefficient ([1]; cGMP activation) | EC50 ([1]; read-out: K1/2 cGMP, +80 mV, no PIPn) [µM] | Po max cGMP ([1]; saturating cGMP) | EC50 ([2]; +80 mV, no PIPn) [µM] | EC50 [2, 3] [µM] | Hill coefficient h [2, 3] | Po max cGMP ([2]; saturating cGMP) | Po max cGMP (CNGA3 D609M channels; estimated using tetracaine block) | fold change in cAMP efficacy after PIP3 ([1]; 10 µM PIP3) [fold] | Hill coefficient h after phosphoinositide ([2]; after PIP3 or PIP2 application) | K1/2 cGMP after phosphoinositide ([2]; after PIP3 or PIP2 application) [µM] | Hill coefficient h after PIP3 [2, 4] | K1/2 cGMP after PIP3 [2, 4] [µM] | effect on relative cGMP efficacy (CNGA3 D609M channels; 1 µM PIP3) | Compound | PIP3-induced change in cAMP efficacy ([1]; 1 µM PIP3) |
| --- | --- | --- | --- | --- | --- | --- | --- | --- | --- | --- | --- | --- | --- | --- | --- |
| 2.00 ± 0.00 (5) | 8.2 ± 0.57 | 0.92 ± 0.01 (4) | 5.3 ± 0.18 | 5.7 | 1.7 | 0.95 ± 0.01 (4) | 0.30 ± 0.02 |  |  |  |  |  |  | Nc1nc2c(ncn2[C@@H]2O[C@@H]3COP(=O)(O)O[C@H]3[C@H]2O)c(=O)[nH]1 [cGMP, cyclic guanosine monophosphate] |  |
|  |  |  |  |  |  |  |  | 1.06 ± 0.03 | 1.8 | 9.4 ± 0.9 | 1.7 | 11.4 | elevated relative cGMP efficacy | phosphatidylinositol (3,4,5)-trisphosphate [PIP3] | failed to show a PIP3-dependent increase in cAMP efficacy |
